From publication PMC12491715 (Acta Pharmaceutica Sinica. B, 2025)

Tested on: C57BL/6JRccHsd mice
Assay: Daily observation during repeated dosing
Assay type: in vivo
Settings: 1 or 5 mg/kg p.o. daily for 27 days
Description: […]. […] Due to the nature of this pilot study, the mice were housed individually.
Seven animals received the 1 mg/kg dose of compound 8, and five animals received the 5 mg/kg dose of compound 8. Compound 8 was prepared as a stock solution in 100% MeCN (5 and 10 mg/mL) and kept refrigerated for the duration of the study. The dosages were prepared as follows: based on the animal’s body weight, a calculated volume of compound 8 stock solution was accurately pipetted onto a cubic piece (approx. 50 mg) of sterilized toast (Ölz multigrain toast, Rudolf Ölz Meisterbäcker GmbH & Co KG, Austria), and left to dry at room temperature for 5 min. Subsequently, 25 μL of 50% sucrose in distilled water were added at the same site to mask the bitter taste of compound 8. These dosage units were prepared twice a week during the study and stored in a closed glass petri dish at room temperature until use. For administration, the toast pieces were placed on the floor of the cage at the same time each day, and left for the animal to eat it voluntarily (the consumption of the dosage was confirmed by observation). Compound 8 was administered in this way for 27 days, eliminating the need for repeated handling and injection. The animals were observed daily for general activity level, hair coat quality or other abnormal behavior or clinical signs.

## CCN(CC)C(=O)n1cnc(C2(CC)Cc3ccccc3C2)c1 [Compound 8, N,N-Diethyl-4-(2-ethylindan-2-yl)-1H-imidazole-1-carboxamide]
  adverse effects on repeated dosing: No adverse effects were observed
